Patent publication US20240173311A1, “METHODS AND COMPOSITIONS FOR MODULATING FGF ACTIVITY” (Recovery Therapeutics, Inc., priority 2021, published 2024)
Where two headings read alike, the source gives them in different places.

Key:
[1] = biological target: T1, FGFR1 in recombinant human FGFR1/FGF2 complex (Homo sapiens, UniProt P11362); assay: Thermal shift assay (TSA), ΔTm of FGFR1 peak; type: binding; conditions: for ΔTm at 25 µM / ΔTm at 10 µM / ΔTm at 100 µM: read-out: ΔTm (° C.) −FGFR1
T1 construct: made in house; host or cells: Escherichia coli BL21 (DE3) Star
T1 sequence (P11362 142-365 limits assumed): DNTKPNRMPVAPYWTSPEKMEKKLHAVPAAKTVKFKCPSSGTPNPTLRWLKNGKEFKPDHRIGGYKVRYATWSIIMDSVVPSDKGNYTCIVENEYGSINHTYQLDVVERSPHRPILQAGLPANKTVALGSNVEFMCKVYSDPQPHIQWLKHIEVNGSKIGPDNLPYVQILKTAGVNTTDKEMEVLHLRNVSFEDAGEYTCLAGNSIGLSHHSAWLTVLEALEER
T1 sequence (P09038 156-288 partner limits assumed): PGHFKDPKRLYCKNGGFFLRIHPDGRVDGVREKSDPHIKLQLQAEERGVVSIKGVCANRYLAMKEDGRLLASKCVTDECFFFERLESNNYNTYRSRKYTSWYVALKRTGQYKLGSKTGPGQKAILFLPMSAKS
Procedure: (§1) TSA was utilized to biophysically characterize the recombinant human FGFR1/FGF2 complex in the presence or absence of selected compounds of formula (I), Compounds 1, 2a-2f, 20, 5, 60, and 8-13. Compound 1 was prepared according to the procedures described in Example 1, and the other compounds were obtained from commercial sources. The assay functions by protein denaturation over a temperature gradient. During protein unfolding, exposed hydrophobic regions bind a dye and fluoresce due to solvent relaxation effects. Changes in the melting temperature of the protein complex in the presence of each compound were monitored and compounds were screened/ranked using this method.
(§2) Thawed aliquots of purified FGF2 (1.0 mg/mL) and FGFR1 (1.6 mg/mL) proteins were mixed in a 1:1 molar ratio ([…]) on ice for 30 min at 4° C. and plated prior to the thermal shift assay (TSA).
(§3) Complex formation was verified by loading the complexed material on a size exclusion column (superdex 10 300GL S200) and observing the monodisperse peak corresponding to the FGF2/FGFR1 complex (˜ 40 kDa). Compounds described herein were screened in dose response format (0-100 μM) with the FGF2/FGFR1 complex in triplicates. FGF2/ FGFR1/compound complexes were mixed in a 1000:1 ratio with Sypro Orange dye (Sigma-Aldrich). The samples were processed using a Bio-Rad CFX C96 Touch quantitative polymerase chain reaction and run using the FRET assay settings with a heating ramp of 0.3° C./s cycling from 4 to 100° C. Data analysis was performed using the Bio-Rad CFX Manager Software (version 3.1, Bio-Rad) and changes in the melting temperature (Tm) of the complex in the presence of each compound were monitored. The results are shown in Table 9 below and also in FIG. 1 (for Compound 10).

[2] = biological target: T2, FGF2 in recombinant human FGFR1/FGF2 complex (Homo sapiens, UniProt P09038); assay: Thermal shift assay (TSA), ΔTm of FGF2 peak; type: binding; conditions: for ΔTm at 25 µM / ΔTm at 10 µM / ΔTm at 100 µM: read-out: ΔTm (° C.) −FGF2
T2 construct: made in house; host or cells: Escherichia coli BL21 (DE3) Star
T2 sequence (P09038 156-288 limits assumed): as the sequence (P09038 156-288 partner limits assumed) above
T2 sequence (P11362 142-365 partner limits assumed): as the sequence (P11362 142-365 limits assumed) above
Procedure: as §1, §2, §3

CCN(CC)c1ccc(C(C)=O)cc1 [Compound 16]
ΔTm at 25 µM [1]: 0.2 °C | ΔTm at 25 µM [2]: 0 °C

CCN(CC)c1ccc(C(=O)c2ccccc2)cc1 [Compound 9oa]
ΔTm at 10 µM ([1]; 10 μM compound): 6 °C | ΔTm at 10 µM ([2]; 10 μM compound): -0.3 °C

O=Cc1ccc(Br)cc1 [Compound 1d]
ΔTm at 25 µM [1]: -2.1 °C | ΔTm at 25 µM [2]: 1.6 °C

CCN(CC)c1ccc(/C=N/NC(=O)C2CCN(CCO)CC2)cc1 [Compound 13oh, (E)-N′-(4-(diethylamino)benzylidene)-1-(2-hydroxyethyl)piperidine-4-carbohydrazide]
ΔTm at 10 µM ([1]; 10 μM compound): 0.6 °C | ΔTm at 10 µM ([2]; 10 μM compound): 0 °C

CCN(CC)c1ccc(/C=N/c2ccccc2)cc1 [Compound 4on]
ΔTm at 25 µM ([1]; 25 μM compound): 1.5 °C | ΔTm at 25 µM ([2]; 25 μM compound): -0.5 °C

(4-(diethylamino)phenyl)(3-methoxyphenyl)methanone [Compound 9oc]
ΔTm (° C.) −FGFR1 ([1]; 2 μM compound): +9.5 °C | ΔTm (° C.) −FGF2 ([2]; 2 μM compound): −5.6 °C

CCN(CC)c1ccc(/C=N/NC(=O)C2CCOCC2)cc1 [Compound 13ob, (E)-N′-(4-(diethylamino)benzylidene)tetrahydro-2H-pyran-4-carbohydrazide]
ΔTm at 25 µM ([1]; 25 μM compound): 1.5 °C | ΔTm at 25 µM ([2]; 25 μM compound): -2.7 °C

CCN(CC)c1ccc(/C=N/NC(=O)c2ccc(O)cc2)cc1 [Compound 13oe]
ΔTm at 10 µM ([1]; 10 μM compound): -1.5 °C | ΔTm at 10 µM ([2]; 10 μM compound): -0.5 °C

CCN(CC)c1ccc(/C=N/Nc2ccc(C#N)cc2)cc1 [Compound 15od, (E)-4-(2-(4-(diethylamino)benzylidene)hydrazineyl)benzonitrile]
ΔTm at 10 µM ([1]; 10 μM compound): 0 °C | ΔTm at 10 µM ([2]; 10 μM compound): -1 °C

CCN(CC)c1ccc(/C=N/O)cc1 [Compound 5o]
ΔTm at 2 µM ([1]; 2 μM compound): 3.5 °C | ΔTm at 2 µM ([2]; 2 μM compound): -1 °C

(4-(diethylamino)phenyl)(3-(trifluoromethoxy)phenyl)methanone [Compound 9om]
ΔTm (° C.) −FGFR1 ([1]; 100 μM compound): +1.2 °C | ΔTm (° C.) −FGF2 ([2]; 100 μM compound): +1.8 °C

CCN(CC)c1ccc(C(O)c2cccc(OC(F)(F)F)c2)cc1 (centres unmarked) [Compound 8om, (4-(diethylamino)phenyl)(3-(trifluoromethoxy)phenyl)methano]
ΔTm (° C.) −FGFR1 ([1]; 10 μM compound): +0.3 °C | ΔTm (° C.) −FGF2 ([2]; 10 μM compound): 0 °C

O=Cc1ccc(F)cc1 [Compound 1b]
ΔTm at 100 µM ([1]; 100 μM compound): 0 °C | ΔTm at 100 µM ([2]; 100 μM compound): 1 °C

O=Cc1cccc(F)c1 [Compound 1f, 3-fluorobenzaldehyde]
ΔTm at 50 µM ([1]; 50 μM compound): 4 °C | ΔTm at 50 µM ([2]; 50 μM compound): -0.4 °C

CCN(CC)c1ccc(C(=O)O)cc1 [Compound 17]
ΔTm at 100 µM ([1]; 100 μM compound): 2.5 °C | ΔTm at 100 µM ([2]; 100 μM compound): 0 °C

CCN(CC)c1ccc(/C=N/N=C/c2ccc(N(CC)CC)cc2)cc1 [Compound 10o, 4,4′-((1E,1′E)-hydrazine-1,2-diylidenebis(methaneylylidene))bis(N,N-diethylaniline)]
ΔTm at 2 µM ([1]; 2 μM compound): 11 °C | ΔTm at 2 µM ([2]; 2 μM compound): -5.2 °C

CCN(CC)c1ccc(/C=N/Cc2ccccc2)cc1 [Compound 4ow, (E)-4-((benzylimino)methyl)-N,N-diethylaniline]
ΔTm at 25 µM ([1]; 25 μM compound): 4 °C | ΔTm at 25 µM ([2]; 25 μM compound): -2 °C

O=C(c1ccccc1)c1cccc(F)c1 [Compound 9af]
ΔTm at 10 µM ([1]; 10 μM compound): 9.8 °C | ΔTm at 10 µM ([2]; 10 μM compound): -6 °C

(4-(diethylamino)phenyl)(3-(trifluoromethyl)phenyl)methanone [Compound 9ob]
ΔTm (° C.) −FGFR1 ([1]; 50 μM compound): +1.2 °C | ΔTm (° C.) −FGF2 ([2]; 50 μM compound): +1.5 °C

CCN(CC)c1ccc(C=O)cc1 [Compound 1o, 4-diethylaminobenzaldehyde]
ΔTm at 25 µM [1]: 5 °C | ΔTm at 25 µM [2]: -2 °C

O=Cc1ccc(Cl)cc1 [Compound 1c]
ΔTm at 10 µM [1]: -2.2 °C | ΔTm at 10 µM [2]: 2 °C

O=Cc1ccccc1F [Compound 1e]
ΔTm at 100 µM ([1]; 100 μM compound): 0 °C | ΔTm at 100 µM ([2]; 100 μM compound): 0.3 °C

CCN(CC)c1ccc(/C=N/N(c2ccccc2)c2ccccc2)cc1 [Compound 15ob]
ΔTm at 25 µM ([1]; 25 μM compound): 0 °C | ΔTm at 25 µM ([2]; 25 μM compound): -1 °C

CCN(CC)c1ccc(/C=N/c2ccc(C(F)(F)F)cc2)cc1 [Compound 4oy, (E)-N, N-diethyl-4-(((4-(trifluoromethyl)phenyl)imino)methyl)aniline]
melting point: 129.3 to 129.6 °C | ΔTm at 50 µM ([1]; 50 μM compound): 7.8 °C | ΔTm at 50 µM ([2]; 50 μM compound): -4.5 °C

CCN(CC)c1ccc(/C=N/NC(=O)CN(C)C)cc1 [Compound 13oa, (E)-N′-(4-(diethylamino)benzylidene)-2-(dimethylamino)acetohydrazide]
ΔTm at 50 µM ([1]; 50 μM compound): 0 °C | ΔTm at 50 µM ([2]; 50 μM compound): -2.1 °C

CCN(CC)c1ccc(/C=N/N2CCN(C(c3ccccc3)c3ccccc3)CC2)cc1 [Compound 15oa, (E)-4-(((4-benzhydrylpiperazin-1-yl)imino)methyl)-N,N-diethylaniline]
ΔTm at 100 µM ([1]; 100 μM compound): 2 °C | ΔTm at 100 µM ([2]; 100 μM compound): -1.5 °C

CCN(CC)c1ccc(C2N[C@@H](C(=O)O)C(C)(C)S2)cc1 (stereo partly drawn) [Compound 11o, (4S)-2-(4-(diethylamino)phenyl)-5,5-dimethylthiazolidine-4-carboxylic acid]
ΔTm at 50 µM ([1]; 50 μM compound): 2 °C | ΔTm at 50 µM ([2]; 50 μM compound): -4.2 °C

CCN(CC)c1ccc(/C=N/Nc2ccccc2)cc1 [Compound 15oc]
ΔTm at 2 µM ([1]; 2 μM compound): 4.3 °C | ΔTm at 2 µM ([2]; 2 μM compound): -2.4 °C

O=Cc1ccccc1 [Compound 1a]
ΔTm at 100 µM [1]: 0.5 °C | ΔTm at 100 µM [2]: 0 °C
